Test results as given in patent publication US10829520B2, “Beta-hairpin peptidomimetics” (POLYPHOR AG, priority 2015, dated 2020).
Where a SMILES comes first, the peptide text is derived from it. Bridges are numbered along the chain shown (N, C = ends). Roman numbers before positions name the chains, in order. [ ]: non-standard residue; d: D form. Tle = CC(C)(C)[C@H](N)C(=O)O; dDab = NCC[C@@H](N)C(=O)O; Nle = CCCC[C@H](N)C(=O)O; Dab = NCC[C@H](N)C(=O)O; dAze = O=C(O)[C@H]1CCN1; Dap = NC[C@H](N)C(=O)O

Tests used:
Format in all cases: cell-based
[1] = system: Acinetobacter baumannii 872842; conditions: 872842
[2] = system: Acinetobacter baumannii DSM 30008; conditions: DSM 30008
Procedure, shortened: (§1)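 Peptide MICs were determined by CLSI broth microdilution in cation-adjusted Mueller-Hinton II broth with 0.002% polysorbate 80, inoculum approx. 10^6 CFU/mL. Two-fold serial dilutions of peptide were tested. MIC was the lowest concentration (μg/mL) with no visible growth after 18-20 hours at 35° C.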

[3] = system: Escherichia coli 926415; conditions: 926415
[4] = system: Escherichia coli ATCC 25922; conditions: ATCC 25922
Procedure, shortened: as §1

[5] = system: Klebsiella pneumoniae 968733; conditions: 968733
[6] = system: Klebsiella pneumoniae SSI #3010; conditions: SSI #3010
Procedure, shortened: as §1

[7] = system: Pseudomonas aeruginosa ATCC 27853; conditions: ATCC 27853
Procedure, shortened: as §1

[8] = system: human red blood cells (hRBC); test: Hemolysis of human red blood cells; conditions: red cells of human, 1 h, 100
Procedure, shortened: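 Peptides at 100 μg/mL were incubated with PBS-washed fresh human erythrocytes (20% v/v, ~0.9×10^9 cells/mL final) for 1 h at 37° C. with shaking. Supernatant OD540 was read after 8-fold dilution; percent hemolysis was expressed relative to the 2.5% Triton X-100 full-lysis control, with PBS/0.001% acetic acid as 0%.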

SMILES | Acinetobacter baumannii 872842 MIC [1] [µg/mL] | Acinetobacter baumannii DSM 30008 MIC [2] [µg/mL] | Escherichia coli 926415 MIC [3] [µg/mL] | Escherichia coli ATCC 25922 MIC [4] [µg/mL] | Klebsiella pneumoniae 968733 MIC [5] [µg/mL] | Klebsiella pneumoniae SSI #3010 MIC [6] [µg/mL] | Pseudomonas aeruginosa ATCC 27853 MIC [7] [µg/mL] | Hemolysis at 100 μg/mL [8] [%]
CCCC[C@@H]1NC(=O)[C@@H]2CCCN2C(=O)[C@H]2CCCN2C(=O)[C@H](CO)NC(=O)[C@H](C)NC(=O)[C@H](C(C)(C)C)NC(=O)[C@H](CCN)NC(=O)[C@H](Cc2c[nH]c3ccccc23)NC(=O)[C@H](CCN)NC(=O)[C@@H](CCN)NC(=O)[C@H](CCC(=O)N[C@@H](CCN)C(=O)N[C@@H](C(=O)N[C@@H](CCN)C(=O)N[C@H]2CCNC(=O)[C@H]([C@@H](C)O)NC(=O)[C@H](CCN)NC(=O)[C@H](CCN)NC(=O)[C@H](CC(C)C)NC(=O)[C@@H](Cc3ccccc3)NC(=O)[C@H](CCN)NC2=O)[C@H](C)O)NC(=O)[C@H](CCN)NC(=O)[C@H](Cc2ccc(O)cc2)NC(=O)[C@H](CO)NC1=O [Ex. 81] (I: cyclo(W[Dab][Tle]AS[dP]P[Nle]SY[Dab]E[dDab][Dab]) / II: [Dab][dT][Dab][Dab][Dab][dF]L[Dab][Dab]T; amide I:12-II:N; lactam II:4-II:C) | 2 | 1 | 0.5 | 0.5 | 2 | 1 | 0.5 | 1
CC(C)C[C@@H]1NC(=O)[C@@H](CC(C)C)NC(=O)[C@H](CCN)NC(=O)[C@@H](NC(=O)[C@H](CCN)NC(=O)[C@@H](NC(=O)[C@H](CCN)NC(=O)CC[C@@H]2NC(=O)[C@H](CCN)NC(=O)[C@H](Cc3ccc(O)cc3)NC(=O)[C@H]([C@@H](C)O)NC(=O)[C@H](C(C)C)NC(=O)[C@@H]3CCCN3C(=O)[C@H]3CCN3C(=O)[C@H](CO)NC(=O)[C@H](C)NC(=O)[C@H](C(C)(C)C)NC(=O)[C@H](CCN)NC(=O)[C@H](Cc3c[nH]c4ccccc34)NC(=O)[C@H](CCN)NC(=O)[C@@H](CCN)NC2=O)[C@@H](C)O)CCNC(=O)[C@H]([C@@H](C)O)NC(=O)[C@H](CCN)NC(=O)[C@H](CCN)NC1=O [Ex. 82] (I: cyclo(AS[dAze]PVTY[Dab]E[dDab][Dab]W[Dab][Tle]) / II: [Dab]T[Dab][Dab][Dab][dL]L[Dab][Dab]T; amide I:9-II:N; lactam II:4-II:C) | 0.5 | 1 | 0.5 | 0.5 | 0.5 | 0.5 | 0.5 | <1
CCCC[C@@H]1NC(=O)[C@@H]2CCCN2C(=O)[C@H]2CCCN2C(=O)[C@H](CO)NC(=O)[C@H](CO)NC(=O)[C@H](C(C)(C)C)NC(=O)[C@H](CCN)NC(=O)[C@H](Cc2c[nH]c3ccccc23)NC(=O)[C@H](CCN)NC(=O)[C@@H](CCN)NC(=O)[C@H](CCC(=O)N[C@@H](CCN)C(=O)N[C@H](C(=O)N[C@@H](CCN)C(=O)N[C@H]2CCNC(=O)[C@H]([C@@H](C)O)NC(=O)[C@H](CCN)NC(=O)[C@H](CCN)NC(=O)[C@H](CC(C)C)NC(=O)[C@@H](CC(C)C)NC(=O)[C@H](CCN)NC2=O)[C@@H](C)O)NC(=O)[C@H](CCN)NC(=O)[C@H](Cc2ccc(O)cc2)NC(=O)[C@H](CN)NC1=O [Ex. 83] (I: cyclo([Nle][Dap]Y[Dab]E[dDab][Dab]W[Dab][Tle]SS[dP]P) / II: [Dab]T[Dab][Dab][Dab][dL]L[Dab][Dab]T; amide I:5-II:N; lactam II:4-II:C) | 1 | 1 | 1 | 2 | 4 | 2 | 1 | 1
CC(C)C[C@@H]1NC(=O)[C@@H](Cc2ccccc2)NC(=O)[C@H](CCN)NC(=O)[C@@H](NC(=O)[C@H](CCN)NC(=O)[C@@H](NC(=O)[C@H](CCN)NC(=O)CC[C@@H]2NC(=O)[C@H](CCN)NC(=O)[C@H](Cc3ccc(O)cc3)NC(=O)[C@@H]3CCNC(=O)C[C@H](NC(=O)[C@H](C(C)(C)C)NC(=O)[C@H](CCN)NC(=O)[C@H](Cc4c[nH]c5ccccc45)NC(=O)[C@H](CCN)NC(=O)[C@@H](CCN)NC2=O)C(=O)N[C@@H]([C@@H](C)O)C(=O)N2CC[C@@H]2C(=O)N2CCC[C@H]2C(=O)N[C@@H](C(C)C)C(=O)N3)[C@@H](C)O)CCNC(=O)[C@H]([C@@H](C)O)NC(=O)[C@H](CCN)NC(=O)[C@H](CCN)NC1=O [Ex. 86] (I: cyclo(DT[dAze]PV[Dab]Y[Dab]E[dDab][Dab]W[Dab][Tle]) / II: [Dab]T[Dab][Dab][Dab][dF]L[Dab][Dab]T; lactam I:1-I:6, II:4-II:C; amide I:9-II:N) | 0.5 | 1 | 0.25 | 0.25 | 0.5 | 0.25 | 0.5 | 1
CC(C)C[C@@H]1NC(=O)[C@@H](CC(C)C)NC(=O)[C@H](CCN)NC(=O)[C@@H](NC(=O)[C@H](CCN)NC(=O)[C@@H](NC(=O)[C@H](CCN)NC(=O)CC[C@@H]2NC(=O)[C@H](CCN)NC(=O)[C@H](Cc3ccc(O)cc3)NC(=O)[C@@H]3CCNC(=O)C[C@H](NC(=O)[C@H](C(C)(C)C)NC(=O)[C@H](CCN)NC(=O)[C@H](Cc4c[nH]c5ccccc45)NC(=O)[C@H](CCN)NC(=O)[C@@H](CCN)NC2=O)C(=O)N[C@@H]([C@@H](C)O)C(=O)N2CC[C@@H]2C(=O)N2CCC[C@H]2C(=O)N[C@@H](C(C)C)C(=O)N3)[C@@H](C)O)CCNC(=O)[C@H]([C@@H](C)O)NC(=O)[C@H](CCN)NC(=O)[C@H](CCN)NC1=O [Ex. 87] (I: cyclo(W[Dab][Tle]DT[dAze]PV[Dab]Y[Dab]E[dDab][Dab]) / II: [Dab]T[Dab][Dab][Dab][dL]L[Dab][Dab]T; lactam I:4-I:9, II:4-II:C; amide I:12-II:N) | 0.5 | 0.25 | 0.125 | 0.125 | 0.25 | 0.25 | 0.25 | <1

The next lines start with results.

Acinetobacter baumannii 872842 MIC [1] [µg/mL] | Acinetobacter baumannii DSM 30008 MIC [2] [µg/mL] | Escherichia coli 926415 MIC [3] [µg/mL] | Escherichia coli ATCC 25922 MIC [4] [µg/mL] | Klebsiella pneumoniae 968733 MIC [5] [µg/mL] | Klebsiella pneumoniae SSI #3010 MIC [6] [µg/mL] | Pseudomonas aeruginosa ATCC 27853 MIC [7] [µg/mL] | SMILES | Hemolysis at 100 μg/mL [8] [%]
2 | 1 | 1 | 1 | 2 | 2 | 2 | CCCC[C@@H]1NC(=O)[C@@H]2CCCN2C(=O)[C@H]2CCCN2C(=O)[C@H](CO)NC(=O)[C@H](CN)NC(=O)[C@H](C(C)(C)C)NC(=O)[C@H](CCN)NC(=O)[C@H](Cc2c[nH]c3ccccc23)NC(=O)[C@H](CCN)NC(=O)[C@@H](CCN)NC(=O)[C@H](CCC(=O)N[C@@H](CCN)C(=O)N[C@H](C(=O)N[C@@H](CCN)C(=O)N[C@H]2CCNC(=O)[C@H]([C@@H](C)O)NC(=O)[C@H](CCN)NC(=O)[C@H](CCN)NC(=O)[C@H](CC(C)C)NC(=O)[C@@H](CC(C)C)NC(=O)[C@H](CCN)NC2=O)[C@@H](C)O)NC(=O)[C@H](CCN)NC(=O)[C@H](Cc2ccc(O)cc2)NC(=O)[C@H](CO)NC1=O [Ex. 84] (I: cyclo([Nle]SY[Dab]E[dDab][Dab]W[Dab][Tle][Dap]S[dP]P) / II: [Dab]T[Dab][Dab][Dab][dL]L[Dab][Dab]T; amide I:5-II:N; lactam II:4-II:C) | 1
1 | 1 | 2 | 1 | 8 | 2 | 1 | CC(C)C[C@@H]1NC(=O)[C@@H](CC(C)C)NC(=O)[C@H](CCN)NC(=O)[C@@H](NC(=O)[C@H](CCN)NC(=O)[C@@H](NC(=O)[C@H](CCN)NC(=O)CC[C@@H]2NC(=O)[C@H](CCN)NC(=O)[C@H](Cc3ccc(O)cc3)NC(=O)[C@H](CN)NC(=O)[C@H](C(C)C)NC(=O)[C@@H]3CCCN3C(=O)[C@H]3CCCN3C(=O)[C@H](CO)NC(=O)[C@H](C)NC(=O)[C@H](C(C)C)NC(=O)[C@H](CCN)NC(=O)[C@H](Cc3c[nH]c4ccccc34)NC(=O)[C@H](CCN)NC(=O)[C@@H](CCN)NC2=O)[C@@H](C)O)CCNC(=O)[C@H]([C@@H](C)O)NC(=O)[C@H](CCN)NC(=O)[C@H](CCN)NC1=O [Ex. 85] (I: cyclo(V[Dap]Y[Dab]E[dDab][Dab]W[Dab]VAS[dP]P) / II: [Dab]T[Dab][Dab][Dab][dL]L[Dab][Dab]T; amide I:5-II:N; lactam II:4-II:C) | <1
